The values below come from article PMC9741652, “CRL2^ZER1/ZYG11B recognizes small N-terminal residues for degradation” (Nature Communications, 2022).

No end group written: not given here.

Experiment [1] has as its target T1, ZYG11B (residues 490–728) (Homo sapiens, UniProt Q9C0D3).
T1 construct: ZYG11B (residues 490–728) bearing an N-terminal SELF; 8xHis-SUMO (N, cleaved yes); made in house; host or cells: E. coli BL21 (DE3)
Kind of experiment: ITC of peptides titrated into ZYG11B. The note with it: ZYG11B residues 490–728, 20 mM Tris-HCl pH 7.5, 150 mM NaCl, 16 °C, repeated at least twice, NB = no detectable binding. The text has this: (§1) To further investigate the binding specificity of ZER1 and ZYG11B, we synthesized a set of eight-residue peptides (sequence: XFLHVGQD, X = any free Nt-residue), and carried out isothermal titration calorimetry (ITC) assays to quantify their binding affinities for ZER1 and ZYG11B. […] The rest of Nt-residues were disallowed for the binding to both ZER1 and ZYG11B (Fig. 1e, and Supplementary Fig. 1c–f).
(§2) ZYG11B (residues 490–728) bearing an N-terminal SELF generated by a modified pET28-MKH8SUMO (Addgene Plasmid #79526) vector and ZER1 (residues 469–766) bearing an N-terminal MEEL sequence generated by pNIC-CH (Addgene Plasmid #26117) vector were used to perform isothermal titration calorimetry (ITC) assays, as previously described. Proteins (concentration 50–70 μM) and peptides (concentration 0.5–1.5 mM) solutions were prepared in an ITC buffer consisting of 20 mM Tris-HCl (pH 7.5) and 150 mM NaCl. The ITC measurements were recorded at 16 °C with a MicroCal PEAQ-ITC instrument (Malvern Panalytical). 1.5 μL of each peptide (except for first injection using 0.5 μL peptide) was titrated into a 300 μL cell of the protein with 120 s incubation time between the injections. The reference power was controlled at […]. The acquired data were analyzed using MicroCal PEAQ-ITC Analysis Software version 1.30. Each experiment was repeated at least twice independently with similar results.

Experiment [2] has as its target T2, ZER1 E600A (residues 469–766) (Homo sapiens, UniProt Q7Z7L7, E600A).
T2 construct: wild-type (WT) and mutant ZER1 (residues 469–766) titrated with SFLHVGQD peptide; made in house; host or cells: E. coli BL21 (DE3)
The experiment is described as follows: ITC of peptides with mutant ZER1 E600A. It is filed as binding. The note with it: mutant ZER1 residues 469–766.
Excerpt: (§3) To verify the functional importance of the residues involved in substrate binding, we generated single-point mutants of the binding pocket residues in ZER1 and ZYG11B. […] In addition, mutating the third-residue-interacting N553 into alanine caused a significant reduction in substrate binding (Fig. 3e, and Supplementary Fig. 4a–c).
as §2

In experiment [3] the target is T3, ZER1 D556A (residues 469–766) (Homo sapiens, UniProt Q7Z7L7, D556A).
T3 construct: wild-type (WT) and mutant ZER1 (residues 469–766) titrated with SFLHVGQD peptide; made in house; host or cells: E. coli BL21 (DE3)
T3 sequence (Q7Z7L7 469-766 D556A): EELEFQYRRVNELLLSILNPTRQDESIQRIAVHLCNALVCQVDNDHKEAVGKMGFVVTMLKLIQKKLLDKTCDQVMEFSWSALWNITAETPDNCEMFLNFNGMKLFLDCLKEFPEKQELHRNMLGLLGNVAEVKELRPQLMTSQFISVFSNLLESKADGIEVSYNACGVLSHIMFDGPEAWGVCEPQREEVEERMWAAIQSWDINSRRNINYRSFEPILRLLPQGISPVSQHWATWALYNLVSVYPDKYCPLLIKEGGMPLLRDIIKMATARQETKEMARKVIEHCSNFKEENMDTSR
The experiment is described as follows: ITC of peptides with mutant ZER1 D556A. The class given is binding. The note with it: mutant ZER1 residues 469–766.
Excerpt: as §3, §2

For experiment [4], the target named is T4, ZER1 W552A (residues 469–766) (Homo sapiens, UniProt Q7Z7L7, W552A).
T4 construct: wild-type (WT) and mutant ZER1 (residues 469–766) titrated with SFLHVGQD peptide; made in house; host or cells: E. coli BL21 (DE3)
T4 sequence (Q7Z7L7 469-766 W552A): as the sequence (Q7Z7L7 469-766 D556A) above, with W84A, A88D counted along it
The experiment is described as follows: ITC of peptides with mutant ZER1 W552A. The note with it: mutant ZER1 residues 469–766, NB = no detectable binding.
Excerpt: as §3, §2

The target in experiment [5] is T5, ZER1 N597A (residues 469–766) (Homo sapiens, UniProt Q7Z7L7, N597A).
T5 construct: wild-type (WT) and mutant ZER1 (residues 469–766) titrated with SFLHVGQD peptide; made in house; host or cells: E. coli BL21 (DE3)
T5 sequence (Q7Z7L7 469-766 N597A): as the sequence (Q7Z7L7 469-766 D556A) above, with A88D, N129A counted along it
The experiment is described as follows: ITC of peptides with mutant ZER1 N597A. The note with it: mutant ZER1 residues 469–766, NB = no detectable binding.
Excerpt: as §3, §2

A further experiment has as its target T6, ZER1 (residues 469–766) (Homo sapiens, UniProt Q7Z7L7).
T6 construct: made in house; host or cells: E. coli BL21 (DE3)
Kind of experiment: ITC of peptides titrated into ZER1. The class given is binding. The note with it: wild-type ZER1 residues 469–766.
Excerpt: as §1, §2

T1 sequence (Q9C0D3 490-728): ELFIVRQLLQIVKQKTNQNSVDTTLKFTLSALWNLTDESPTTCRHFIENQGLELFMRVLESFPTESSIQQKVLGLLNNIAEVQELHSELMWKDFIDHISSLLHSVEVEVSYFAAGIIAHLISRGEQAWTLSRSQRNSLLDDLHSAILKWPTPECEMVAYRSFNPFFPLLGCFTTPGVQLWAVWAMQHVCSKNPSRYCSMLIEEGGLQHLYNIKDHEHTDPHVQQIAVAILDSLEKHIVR
T6 sequence (Q7Z7L7 469-766): as the sequence (Q7Z7L7 469-766 D556A) above, with A88D counted along it
T2 sequence (Q7Z7L7 469-766 E600A): as the sequence (Q7Z7L7 469-766 D556A) above, with A88D, E132A counted along it

As for H-VFLHVGQD [VFLHVGQD], the Kd in experiment [1] is over 100 µM.

In the case of SFLHVGQD [SFLHVGQD], the dissociation constant (Kd) in experiment [2], in experiment [3], in experiment [4] and in experiment [5] was over 100 µM in each case.

For SGRGKQGGKA [H2A peptide], the “binding to ZER1, in words” value on ZER1 (residues 469–766) is reported as “readily bind”.
